{"source": "patent US10363239B2", "about": "“Method for inhibiting growth of cancer cells” (Pain Therapeutics, Inc., priority 2013, dated 2019)", "key": {"[1]": {"tested_on": "human mammalian epithelial cells (HMEC)", "experiment": "[3H]glucose uptake", "assay_type": "cell-based", "settings": "0.1-5 nM; 4 days", "experimental": "(§1) FIG. 1A through FIG. 1M illustrate the effects of various FLNA-binding compounds on glucose uptake in glioblastoma, melanoma, breast and pancreatic cancer cell lines, along with appropriate non-cancerous primary cell controls. Cells were grown in the absence or presence of 0.1-5 nM indicated compounds for 4 days. Following brief washes with PBS, cells were serum-deprived for 4 hours and then incubated in oxygenated Kreb's Ringer containing 0.1 μCi [^3H]glucose for 2 hours under constant oxygenation. The reaction was terminated by removal of the incubation medium, and cells were washed and scraped off to determine the amounts of [^3H]glucose in cells by scintillation spectrometry. […] N=5-6. […] . […] . To determine the effect of Compound C0105 on glucose utilization, the cancer and primary normal cells were plated extremely thinly (10%). Once cells attached, Compound C0105 was added at 0.1, 0.5, 1 or 5 nM in the medium twice daily (6 hours apart) for 4 days. The cells were serum-deprived (glucose deprived) for 2 hours. Cells were then rinsed with 1 ml PBS and glucose uptake was assessed by contacting the cells with [^3H]glucose (0.01 uCi/l ml) in Kreb's Ringer for 2 hours. Cells were then rinsed with 1 ml PBS 3 times, scraped off and their glucose content counted by liquid scintillation spectrophotometry."}, "[2]": {"tested_on": "primary human pancreatic epithelial cells", "experiment": "[3H]glucose uptake", "assay_type": "cell-based", "settings": "0.1-5 nM; 4 days", "experimental": "as §1"}, "melanoma cells": {"tested_on": "melanoma cells", "experiment": "[3H]thymidine incorporation", "assay_type": "cell-based, human", "settings": "0.1-5 nM; 96 hours", "experimental": "(§2) The effect of Compound C0105 on cell proliferation was determined by the level of [^3H]thymidine incorporation in glioblastoma, melanoma and small-cell lung carcinoma cells. Cells contacted with vehicle or 0.1-5 nM Compound C0105 were incubated with 5 μCi/ml of [^3H]thymidine for 96-hours. Cells were washed and the cell content of [^3H]thymidine was quantified using scintillation spectrometry. […] N=4. **p<0.05, *p<0.01 compared to vehicle (open bars)."}, "[3]": {"tested_on": "small-cell lung carcinoma cells", "experiment": "[3H]thymidine incorporation", "assay_type": "cell-based, human", "settings": "0.1-5 nM; 96 hours", "experimental": "as §2"}, "glioblastoma cells": {"tested_on": "glioblastoma cells", "experiment": "[3H]thymidine incorporation", "assay_type": "cell-based, human", "settings": "0.1-5 nM; 96 hours", "experimental": "as §2"}, "[4]": {"tested_on": "GTP-bound K-ras in melanoma cells", "experiment": "Active K-ras (GTP-bound K-ras) Raf1 RBD pull-down assay", "assay_type": "cell-based, human", "settings": "0.1, 0.5, 1 and 5 nM; 4-day treatment", "experimental": "(§3) FIGS. 31A and 31B illustrate the effects of illustrative Compound C0105 on levels of active K-ras (GTP-bound K-ras), assessed using the agarose bead-bound Raf1 RBD pull-down assay in melanoma, two different pancreatic cancerous cell lines (MiaPaCa2 and BxPc3) and a glioblastoma cell line (U87). The cells were treated (contacted) with zero (vehicle), 0.1, 0.5, 1 and 5 nM Compound C0105 as previously discussed. The thus obtained GTP-bound K-ras was subjected to Western blotting using anti-ras antibodies for identification, the blot densities determined and statistically analyzed as discussed previously.\n(§4) In a separate series of studies, the level of active K-RAS (GTP-bound K-RAS) was determined by precipitation using Raf RBD-conjugated agarose beads from 100 μg of lysates of cancer cells (prepared as described above) following 4-day treatment with varying concentrations of Compound C0105. To ascertain even loading, actin in the cell lysates was immunoprecipitated with goat anti-actin. The precipitates were collected by centrifugation, washed and the active K-RAS and actin eluted by boiling for 5 min in 1×SDS-PAGE. The levels of active K-RAS and actin in 50 μg of cell lysates were size-fractionated on 12% SDS-PAGE, electrophorectically transferred to nitrocellulose membranes and determined by Western blotting with specific monoclonal antibodies against K-RAS and actin."}, "[5]": {"tested_on": "GTP-bound K-ras in glioblastoma cell line (U87)", "experiment": "Active K-ras (GTP-bound K-ras) Raf1 RBD pull-down assay", "assay_type": "cell-based, human", "settings": "0.1, 0.5, 1 and 5 nM; 4-day treatment", "experimental": "as §3, §4"}, "[6]": {"tested_on": "GTP-bound K-ras in MiaPaCa2 cells", "experiment": "Active K-ras (GTP-bound K-ras) Raf1 RBD pull-down assay", "assay_type": "cell-based, human", "settings": "0.1, 0.5, 1 and 5 nM; 4-day treatment", "experimental": "as §3, §4"}, "[7]": {"tested_on": "GTP-bound K-ras in BxPc3 cells", "experiment": "Active K-ras (GTP-bound K-ras) Raf1 RBD pull-down assay", "assay_type": "cell-based, human", "settings": "0.1, 0.5, 1 and 5 nM; 4-day treatment", "experimental": "as §3, §4"}, "[8]": {"tested_on": "small-cell lung carcinoma cells", "experiment": "Glucose deprivation-induced apoptosis markers (cleaved PARP-1, caspase-3) by Western blotting", "assay_type": "cell-based, human", "settings": "1 nM; Day 3 and 4", "experimental": ". Cells were washed, solubilized and the levels of apoptotic markers PARP-1 and caspase-3 (19- and 17-KDa) in the obtained cell lysates were determined by Western blotting. The density of protein bands was quantified by densitometric scanning. […] . […] N=5. *p<0.01 compared to Day 0. #p<0.01 compared to vehicle (open bars).\n. The cells were washed with PBS, incubated in 0.1% fetal bovine serum (FBS) for 16 hours and incubated in glucose-free 0.1% FBS-containing medium for up to 4 days in the presence of vehicle or 1 nM Compound C0105. The cells in the entire well were collected by centrifugation. […] The protein concentrations were measured by the Bradford method.\nThe cells were homogenized and the obtained homogenates were centrifuged to remove nucleus and mitochondria. […] The level of apoptotic cell death was determined using Western blotting in 50 μg solubilized cell lysates with antibodies against cleaved PARP-1 (Asp^214) and caspase-3 (Asp^175), both at 1:1000 dilution. […] Bands at the relevant molecular masses of Ki67 and PCNA were quantified by densitometric scan. Membranes were stripped, washed 5× in 0.1% PBST (2 minutes each wash) and the actin content analyzed by immunoblotting using monoclonal anti-actin to illustrate even loading."}, "[9]": {"tested_on": "primary neuroendocrine tumor cells", "experiment": "Cell proliferation by Ki67 and PCNA (Western blotting)", "assay_type": "cell-based, human", "settings": "1 nM; 4 days"}}, "data": [{"smiles": "CN1CCC2(CC1)NCC(=O)N2Cc1ccccc1", "note": "[Compound C0105]", "values": [{"measurement": "Basal glucose uptake", "setting": "[1]", "value": "no change"}, {"measurement": "Basal glucose uptake", "setting": "[2]", "value": "no effect"}, {"measurement": "Cell proliferation by [3H]thymidine incorporation", "setting": "melanoma cells", "value": "reduces glioblastoma, melanoma and small-cell lung carcinoma cell proliferation"}, {"measurement": "Cell proliferation by [3H]thymidine incorporation", "setting": "[3]", "value": "reduces glioblastoma, melanoma and small-cell lung carcinoma cell proliferation"}, {"measurement": "Cell proliferation by [3H]thymidine incorporation", "setting": "glioblastoma cells", "value": "reduces glioblastoma, melanoma and small-cell lung carcinoma cell proliferation"}, {"measurement": "GTP-bound K-ras (active K-ras) level", "setting": "[4]", "value": "reduced GTP-bound K-ras"}, {"measurement": "GTP-bound K-ras (active K-ras) level", "setting": "[5]", "value": "reduced GTP-bound K-ras"}, {"measurement": "GTP-bound K-ras (active K-ras) level", "setting": "[6]", "value": "reduced GTP-bound K-ras"}, {"measurement": "GTP-bound K-ras (active K-ras) level", "setting": "[7]", "value": "reduced GTP-bound K-ras"}, {"measurement": "Glucose deprivation-induced cell death by cleaved PARP-1 and caspase-3", "setting": "[8]", "value": "reduces glucose deprivation-induced cell death"}, {"measurement": "Cell proliferation (Ki67 and PCNA levels)", "setting": "[9]", "value": "Inhibits Proliferation"}]}]}
